Test results reported in patent publication EP0302435A1, “Method for augmenting antibody-dependent cellular cytotoxicity” (NEORX CORPORATION, priority 1987, dated 1989).

Tested on: LS-180 target cells
Assay: PMN-ADCC target cell lysis assay (⁵¹Cr release)
Assay type: cell-based, human
Conditions: for % Cytotoxicity: PMNs pretreated 30 min, E:T 100:1, 3 h ADCC assay; for % Cytotoxicity / augmentation of PMN-mediated IgG₃ ADCC: antibody NR-CO-04; for augmentation of PMN-mediated IgG₃ ADCC: activator pretreatment of PMNs, summary of Table 2
Description: Peripheral blood polymorphonuclear leukocytes (PMNs) were obtained from healthy normal human donors. Blood (150 cc) was withdrawn by venipuncture in heparinized tubes and mixed with an equal volume of 3% dextran in phosphate-buffered saline (PBS). After sedimentation at 1 x g for 10 min at room temperature, the leukocyte-rich plasma was layered on top of lymphocyte separation medium (LSM, Organon Technica, Durham, NC). PMNs were purified by treating the PMNs and red blood cell (RBC) pellet with RBC lysing solution (0.800% w/v NH₄Cl, 0.1% w/v KHCO₃, 37.0 mg tetrasodium EDTA in 100 ml water at pH 7.3). After incubating approximately 5 min at room temperature, the volume was increased 3X with PBS and the cells washed twice by centrifugation. After resuspension of the cells in RPMI-5% FCS, the PMNs were used in cytotoxicity assays or were incubated with response modifiers.
An appropriate number of target cells were labeled with 200 µCi ⁵¹Cr (⁵¹Cr-Na₂CrO₃; New England Nuclear, Boston, MA) for 2 h at 37°C, with gentle mixing every 15-30 min. The labeled cells were washed three times with 15 ml RPMI followed by centrifugation at 250 x g for 5 min at room temperature. The final pellet was resuspended in RPMI containing 5% FCS, counted, and diluted to an appropriate concentration.
In a typical assay, effector PMNs at different effector:target ratios were added to wells of a microtiter plate (Falcon Plastics, Oxnard, CA), except for those wells to be used for determination of total and spontaneous release of ⁵¹Cr from target cells. For GM-CSF augmentation, PMNs were generally treated within the microtiter plates by the addition of the lymphokine. The effector cells were either washed before the addition of antibody and target cells, or were left in the presence of lymphokine during the ADCC assay.
NR-CO-04 antibody was added to appropriate wells at a concentration of 1 µg/well (4 µg/ml), and the microtiter plate was then incubated at 37°C for 3 h. […]
Wells used for determination of spontaneous ⁵¹Cr release received labeled target cells alone in 200 µl of RPMI-5% FCS; the wells used for determination of total ⁵¹Cr release received labeled target cells and 200 µl 1.0% NP-40.
After […] incubation, the microtiter plate was centrifuged at 250 x g for 5 min at room temperature, and 125 µl of supernatant was transferred from each well into a separate 12 x 75 mm glass tube. Each tube was then assayed for ⁵¹Cr release with a Beckman 5000 gamma counter.
PMN-ADCC assays were performed in triplicate, according to the procedure described in Example I.E., supra. The % lysis (or percent specific release) is indicative of the level of ADCC of target cells. Test release is the amount of release in wells containing effector cells and target cells.

| Molecule | % Cytotoxicity (concentration not given) [%] | augmentation of PMN-mediated IgG₃ ADCC | GM-CSF augmentation of PMN-ADCC (dose-dependent, 1 to 100 μM retinal, summary of Table 4) | low level of PMN-ADCC observed in the absence of GM-CSF stimulation (dose-dependent, summary of Table 4) | % Cytotoxicity (10⁻⁷ M) [%] | % Cytotoxicity (10⁻⁸ M) [%] | % Cytotoxicity (10⁻⁹ M) [%] |
| --- | --- | --- | --- | --- | --- | --- | --- |
| CCCCCCCCCCCCCC(=O)O[C@@H]1[C@@H](C)[C@@]2(O)[C@@H](C=C(CO)C[C@]3(O)C(=O)C(C)=C[C@@H]23)[C@@H]2C(C)(C)[C@]12OC(C)=O [PMA, phorbol myristate acetate] | 18.8 ± 0.6 | less effective than GM-CSF |  |  |  |  |  |
| CC1=C(/C=C/C(C)=C/C=C/C(C)=C/C=O)C(C)(C)CCC1 [Retinal] |  |  | abrogated | further depressed |  |  |  |
| fMET-Leu-Phe peptide [fMLP] |  | less effective than GM-CSF |  |  | 16.2 ± 0.8 | 23.7 ± 1.2 | 15.6 ± 0.8 |
